Results on 27 compounds are retold here after ChEMBL document CHEMBL1130948, “Synthesis of sialyl Lewis X mimetics using the Ugi four-component reaction” (Bioorg Med Chem Lett, 1998).

Several values for one entry are separate records, joined by “and”; a condition that tells them apart may be missing. Identical values can stand only once. Activity calls are given as the source filed them. No cut-off for these calls is given here. Some results are limits rather than exact numbers.

Assay [1] has as its target T1, E-selectin (Homo sapiens) (UniProt P16581).
T1 sequence (whole entry): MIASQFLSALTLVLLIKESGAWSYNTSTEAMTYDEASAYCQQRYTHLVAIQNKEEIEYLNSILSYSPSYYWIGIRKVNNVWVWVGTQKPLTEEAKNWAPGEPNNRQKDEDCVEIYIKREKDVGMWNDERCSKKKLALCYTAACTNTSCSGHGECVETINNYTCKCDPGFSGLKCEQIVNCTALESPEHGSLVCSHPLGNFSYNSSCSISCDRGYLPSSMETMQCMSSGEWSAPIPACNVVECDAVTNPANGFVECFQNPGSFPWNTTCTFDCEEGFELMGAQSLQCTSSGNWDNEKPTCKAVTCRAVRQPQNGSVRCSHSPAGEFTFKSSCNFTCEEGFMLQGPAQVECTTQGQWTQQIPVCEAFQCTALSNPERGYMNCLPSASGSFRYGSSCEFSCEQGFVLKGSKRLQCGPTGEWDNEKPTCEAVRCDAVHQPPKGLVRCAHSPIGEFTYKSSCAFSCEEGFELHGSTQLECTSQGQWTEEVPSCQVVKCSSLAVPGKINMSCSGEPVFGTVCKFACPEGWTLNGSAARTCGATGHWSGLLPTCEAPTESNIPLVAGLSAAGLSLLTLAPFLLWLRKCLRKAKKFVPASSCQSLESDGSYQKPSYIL
Nature of the assay: Inhibitory activity against E-selectin was tested in a cell-free SLe-polymer/Selectin E assay, at 3 mM concentration; […].

The target of assay [2] is T2, P-selectin (Homo sapiens, UniProt P16109).
T2 sequence (P16109 whole entry): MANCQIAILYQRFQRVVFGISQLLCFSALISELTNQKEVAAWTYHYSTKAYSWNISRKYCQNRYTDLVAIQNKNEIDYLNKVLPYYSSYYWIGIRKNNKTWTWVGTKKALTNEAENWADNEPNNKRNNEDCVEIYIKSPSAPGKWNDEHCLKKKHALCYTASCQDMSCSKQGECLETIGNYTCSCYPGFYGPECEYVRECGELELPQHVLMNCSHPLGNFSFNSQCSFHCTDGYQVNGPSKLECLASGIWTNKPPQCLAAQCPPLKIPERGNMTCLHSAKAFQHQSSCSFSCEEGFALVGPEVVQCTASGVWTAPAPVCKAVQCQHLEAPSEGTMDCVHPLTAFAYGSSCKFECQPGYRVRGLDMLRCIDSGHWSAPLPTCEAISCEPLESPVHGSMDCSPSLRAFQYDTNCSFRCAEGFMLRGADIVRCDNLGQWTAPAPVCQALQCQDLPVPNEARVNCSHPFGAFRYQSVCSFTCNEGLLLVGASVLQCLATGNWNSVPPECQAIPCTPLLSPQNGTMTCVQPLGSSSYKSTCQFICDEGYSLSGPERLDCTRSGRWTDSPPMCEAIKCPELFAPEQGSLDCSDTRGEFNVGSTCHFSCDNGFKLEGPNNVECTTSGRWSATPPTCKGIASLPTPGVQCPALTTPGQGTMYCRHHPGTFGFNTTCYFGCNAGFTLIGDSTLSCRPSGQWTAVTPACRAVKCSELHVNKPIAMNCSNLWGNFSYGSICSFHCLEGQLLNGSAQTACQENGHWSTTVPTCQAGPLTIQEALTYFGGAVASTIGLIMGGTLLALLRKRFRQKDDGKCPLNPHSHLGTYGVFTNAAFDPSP
Nature of the assay: Tested in a cell-free SLe-polyacrylamide glycoconjugate binding assay (assay A) in P-selectin; inactive.

For assay [3], the target named is T2, P-selectin. As to the kind of experiment: Compound was tested in a cell-free SLe-polyacrylamide glycoconjugate binding assay (assay B) in P-selectin.
Assay [4] has as its target T1, E-selectin (Homo sapiens). As to the kind of experiment: (§1) Compound was tested in a cell-free SLe-polyacrylamide glycoconjugate binding assay (assay A) in Selectin E at 3 mM.
Assay [5] concerns the target T1, E-selectin (Homo sapiens). Described as §1. The source holds these as a separate data set.
For assay [6], the target named is T3, E-selectin (Homo sapiens, UniProt P16581).
T3 sequence (P16581 whole entry): T1 sequence (whole entry)
Nature of the assay: Compound was tested in a cell-free SLe-polyacrylamide glycoconjugate binding assay (assay B) in Selectin E.

In assay [7] the target is T4, P-selectin (Homo sapiens) (UniProt P16109).
T4 sequence (whole entry): T2 sequence (P16109 whole entry)
The note with it: 1 mM.
Description: Compound was tested in a cell-free SLe-polyacrylamide glycoconjugate binding assay (assay A) in P-selectin at 1 mM

Assay [8] concerns the target T3, E-selectin. Nature of the assay: Compound was tested in a cell-free SLe-polyacrylamide glycoconjugate binding assay (assay A) in Selectin E.
Assay [9] deals with T2, P-selectin. As to the kind of experiment: Compound was tested in a cell-free SLe-polyacrylamide glycoconjugate binding assay (assay B) in P-selectin; value ranges from 1.3-2.
Assay [10] has as its target T2, P-selectin. As to the kind of experiment: Tested in a cell-free SLe-polyacrylamide glycoconjugate binding assay (assay A) in P-selectin.
Assay [11] addresses T1, E-selectin (Homo sapiens). As to the kind of experiment: Inhibitory activity against E-selectin was tested in a cell-free SLe-polymer/Selectin E assay, at 3 mM concentration.
For assay [12], the target named is T2, P-selectin. As to the kind of experiment: Compound was tested in a cell-free SLe-polyacrylamide glycoconjugate binding assay (assay A) in P-selectin; value ranges from 1-3.
In assay [13] the target is T3, E-selectin. Nature of the assay: Compound was tested in a cell-free SLe-polyacrylamide glycoconjugate binding assay (assay A) in Selectin E; inactive.
Assay [14] concerns the target T1, E-selectin (Homo sapiens). As to the kind of experiment: Inhibitory activity against E-selectin was tested in a cell-free SLe-polymer/Selectin E assay, at 3 mM concentration; […].
Assay [15] addresses T1, E-selectin (Homo sapiens). Nature of the assay: Compound was tested in a cell-free SLe-polymer/Selectin E assay, at 3 mM concentration.

The term inhibition denotes how much of the control response was suppressed. Take `C/C=C/C=C/C(=O)N(CC(=O)O)C(CC1OC(CO)C(O)C(O)C1O)C(=O)NCC(=O)O` (stereo not drawn): the inhibition result in assay [1] is “inactive”.
One may read the IC50 as the midpoint of a concentration-inhibition curve. Lower therefore signals higher potency. For `O=C(O)CCC(=O)N(C(CCC(=O)O)C(=O)O)C(CC1OC(CO)C(O)C(O)C1O)C(=O)NCC(=O)O` (stereo not drawn), the IC50 result at P-selectin [2] was “Not Active”; on P-selectin [3], 18 µM and 25 µM; at E-selectin [6], greater than 4 mM. Further, the inhibition in [4] came to 45%; in assay [5] it was 45%; in assay [7], 29%.
Consider `CC(C(=O)NCCc1ccccc1)N(C(=O)CC1OC(COc2ccccc2)C(O)C(O)C1O)C(CCC(=O)O)C(=O)O` (stereo not drawn), for which the IC50 at P-selectin [3] was 311 µM and 85 µM; on E-selectin [6], greater than 2.5 mM; at E-selectin [8], greater than 3000 µM.
With `CC(=O)N[C@H]1[C@H]([C@H](O)[C@H](O)CO)O[C@@](O[C@H]2[C@@H](O)[C@@H](CO)O[C@@H](O[C@@H]([C@H](O[C@@H]3O[C@@H](C)[C@@H](O)[C@@H](O)[C@@H]3O)[C@H](C=O)NC(C)=O)[C@H](O)CO)[C@@H]2O)(C(=O)O)C[C@@H]1O` [SIALYL LEWIS X], the IC50 on P-selectin [9] is 1.3 mM; at E-selectin [6], 1.09 mM; at E-selectin [8], 480 µM; at P-selectin [10] it was greater than 3000 µM.
Regarding `CC1OC(CC(C(=O)NCCc2ccccc2)N(CC(=O)NC(CCC(=O)O)C(=O)O)C(=O)CCc2ccc(Oc3ccc(Oc4ccccc4)cc3)cc2)C(O)C(O)C1O` (stereo not drawn), the IC50 on P-selectin [3] is 28 µM; at E-selectin [6] it was greater than 4 mM; at E-selectin [8], 530 µM; on P-selectin [10], 283 µM.
In assay [11], `O=C(O)CNC(=O)C(CC1OC(CO)C(O)C(O)C1O)N(CC(=O)O)C(=O)Cc1cccc2ccccc12` (stereo not drawn) yielded an inhibition of 42%.
Take `COC(=O)CNC(=O)C(C)N(C(=O)CC1OC(COCCCc2ccc(Oc3ccc(Oc4ccccc4)cc3)cc2)C(O)C(O)C1O)C(CCC(=O)O)C(=O)O` (stereo not drawn): the concentration for half-maximal inhibition (IC50) on P-selectin [12] was 1 mM; at P-selectin [3], 127 µM and 32 µM; at E-selectin [6], 3.42 mM and 3.62 mM; on E-selectin [8], 420 µM and 600 µM.
Regarding `CCOCCOCCOCCOCCCCOCC1OC(CC(=O)NC(CCC(=O)O)C(=O)O)C(O)C(O)C1O` (stereo not drawn), the IC50 on P-selectin [3] was 20 µM; at E-selectin [6], greater than 10 mM; on E-selectin [13], “Not Active”; on P-selectin [10], greater than 3000 µM.
`O=C(O)CNC(=O)C(CC1OC(CO)C(O)C(O)C1O)N(CC(=O)O)C(=O)c1ccc(-c2ccccc2)cc1` (stereo not drawn): the inhibition entry in assay [14] was “inactive”.
Consider `O=C(O)CNC(=O)C(CC1OC(CO)C(O)C(O)C1O)N(CC(=O)O)C(=O)CC1c2ccccc2-c2ccccc21` (stereo not drawn), for which the inhibition result in assay [14] was “inactive”.
As to `O=C(O)CCC(NC(=O)CC1OC(COCCCc2ccc(Oc3ccc(Oc4ccccc4)cc3)cc2)C(O)C(O)C1O)C(=O)O` (stereo not drawn), the IC50 on P-selectin [3] is 4 µM; at E-selectin [6], greater than 10 mM; at E-selectin [8] it was 350 µM; at P-selectin [10] it was 34 µM.
As for `COC(=O)CNC(=O)C(CC1OC(C)C(O)C(O)C1O)N(Cc1ccccc1)C(=O)C(NC(=O)CCC(=O)O)C(O)CO` (stereo not drawn), the IC50 on E-selectin [8] is 840 µM.
As to `COC(=O)CCC(=O)N(C(CCC(=O)O)C(=O)O)C(CC1OC(CO)C(O)C(O)C1O)C(=O)NCC(=O)OC` (stereo not drawn), the IC50 result is “Not Active” at P-selectin [2]; 39 µM and 142 µM on P-selectin [3]; greater than 4 mM on E-selectin [6]; 3000 µM and > 3000 µM on E-selectin [8].
Take `COC(=O)CNC(=O)C(C)N(C(=O)CC1OC(CO)C(O)C(O)C1O)C(CCC(=O)O)C(=O)O` (stereo not drawn): the IC50 at E-selectin [6] is greater than 10 mM; on E-selectin [8] it was 360 µM and 1000 µM.
With `CCOCCOCCOCCOCCCCOCC1OC(CC(=O)N(C(C)C(=O)NCC(=O)OC)C(CCC(=O)O)C(=O)O)C(O)C(O)C1O` (stereo not drawn), the IC50 is 5 µM and 1 µM on P-selectin [3]; greater than 10 mM at E-selectin [6]; 500 µM and 300 µM on E-selectin [8]; greater than 3000 µM on P-selectin [10].
For `CCCCCC(=O)N(CC(=O)O)C(CC1OC(CO)C(O)C(O)C1O)C(=O)NCC(=O)O` (stereo not drawn), the inhibition in assay [15] worked out at 52%.
For the compound `CCCCCCCCCCCCCC(=O)N(CC(=O)O)C(CC1OC(CO)C(O)C(O)C1O)C(=O)NCC(=O)O` (stereo not drawn), the inhibition in assay [11] worked out at 32%.
Compound `CC(=O)N(CC(=O)O)C(CC1OC(CO)C(O)C(O)C1O)C(=O)NCC(=O)O` (stereo not drawn) had an inhibition in [15] of 28%.
For `COC(=O)CNC(=O)C(CCC(=O)O)N(C(=O)CC1OC(CO)C(O)C(O)C1O)C(CCC(=O)O)C(=O)O` (stereo not drawn), the IC50 result is “Not Active” at P-selectin [2], 28 µM on P-selectin [3], greater than 4 mM at E-selectin [6] and 3000 µM on E-selectin [8].
Regarding `O=C(O)CNC(=O)C(CC1OC(CO)C(O)C(O)C1O)N(CC(=O)O)C(=O)c1cccc2c1Cc1ccccc1-2` (stereo not drawn), the inhibition in assay [11] turned out to be 48%.
As for `CC1OC(CC(=O)N(CC(=O)NC(CCC(=O)O)C(=O)O)C(CCc2ccc(Oc3ccc(Oc4ccccc4)cc3)cc2)C(=O)NCCc2ccccc2)C(O)C(O)C1O` (stereo not drawn), the 50% inhibitory concentration (IC50) at P-selectin [3] is 76 µM; at E-selectin [6], greater than 2.5 mM; on E-selectin [8] it was 950 µM.
As for `O=C(O)CNC(=O)C(CC1OC(CO)C(O)C(O)C1O)N(CC(=O)O)C(=O)Cc1ccc2ccccc2c1` (stereo not drawn), the inhibition in assay [11] was 51%.
With `CC(C(=O)NC(C)(C)C)N(C(=O)CC1OC(COc2ccccc2)C(O)C(O)C1O)C(CCC(=O)O)C(=O)O` (stereo not drawn), the IC50 was 87 µM and 136 µM on P-selectin [3]; greater than 2.5 mM on E-selectin [6]; greater than 3000 µM at E-selectin [8].
`O=C(O)CCC(C(=O)O)N(C(=O)CC1OC(CO)C(O)C(O)C1O)C(CCC(=O)O)C(=O)NCC(=O)O` (stereo not drawn): the IC50 result is “Not Active” at P-selectin [2], 15 µM at P-selectin [3], greater than 4 mM on E-selectin [6] and 3000 µM on E-selectin [8].
`O=C(O)CNC(=O)C(CC1OC(CO)C(O)C(O)C1O)N(CC(=O)O)C(=O)c1ccccc1` (stereo not drawn) came in with an inhibition in [11] of 38%.
In [15], `O=C(O)CNC(=O)C(CC1OC(CO)C(O)C(O)C1O)N(CC(=O)O)C(=O)C(F)(F)F` (stereo not drawn) yielded an inhibition of 42%.
As for `COC(=O)CNC(=O)C(C)N(C(=O)CC1OC(COc2ccccc2)C(O)C(O)C1O)C(CCC(=O)O)C(=O)O` (stereo not drawn), the IC50 was 41 µM and 43 µM at P-selectin [3]; greater than 2.5 mM at E-selectin [6]; 3400 µM and 2800 µM at E-selectin [8].
